MIC and Ratio data for 22 compounds are collected here from ChEMBL document CHEMBL2311515, “Synthesis and evaluation of antibacterial activity of 7-alkyloxy-4,5-dihydro-imidazo[1,2-a]quinoline derivatives” (2013).

Holding throughout (assay type): functional
The test system of assay [1] is Staphylococcus aureus. The assay can be described thus: Antibacterial activity against Staphylococcus aureus ATCC 29213 assessed as growth inhibition after 20 hrs by NCCLS broth microdilution method. The conditions noted are these: ATCC 29213, 20 h. (Broth dilution looks for growth in wells or tubes with falling amounts of substance.)
For assay [2], the system named is Escherichia coli. The assay is described as follows: Antibacterial activity against Escherichia coli ATCC 8739 assessed as growth inhibition after 20 hrs by NCCLS broth microdilution method. The note with it: ATCC 8739, 20 h.
In assay [3] the test system is Proteus vulgaris. The assay can be described thus: Ratio of amoxicillin MIC to compound MIC for Proteus vulgaris ATCC 35659.
Assay [4] deals with Proteus vulgaris. The assay can be described thus: Ratio of ciprofloxacin MIC to compound MIC for Proteus vulgaris ATCC 35659.
Assay [5] deals with Klebsiella pneumoniae. The assay can be described thus: Antibacterial activity against Klebsiella pneumoniae ATCC 10031 assessed as growth inhibition after 20 hrs by NCCLS broth microdilution method. The note with it: ATCC 10031, 20 h.
In assay [6] the test system is Pasteurella sp. The assay can be described thus: Antibacterial activity against Pasteurella ATCC 6529 assessed as growth inhibition after 20 hrs by NCCLS broth microdilution method. The note with it: ATCC 6529, 20 h.
Assay [7] deals with Proteus vulgaris. The assay is described as follows: Antibacterial activity against Proteus vulgaris ATCC 35659 assessed as growth inhibition after 20 hrs by NCCLS broth microdilution method. The note with it: ATCC 35659, 20 h.
In assay [8] the test system is Pseudomonas aeruginosa. The assay is described as follows: Antibacterial activity against Pseudomonas aeruginosa ATCC 27853 assessed as growth inhibition after 20 hrs by NCCLS broth microdilution method. The note with it: ATCC 27853, 20 h.
Assay [9] has as its system Salmonella. The assay is described as follows: Antibacterial activity against Salmonella ATCC 14028 assessed as growth inhibition after 20 hrs by NCCLS broth microdilution method. The conditions noted are these: ATCC 14028, 20 h.

≈ marks a conversion by molar mass, not a printed value.

The term MIC denotes the lowest concentration that inhibits growth of the organism. As for `Brc1cccc(COc2ccc3c(c2)CCc2nccn2-3)c1`, the minimum inhibitory concentration (MIC) in assay [1] was 100 µg/mL (≈ 282 µM); in assay [2] it was 50 µg/mL (≈ 141 µM).

Consider `CCCCCCCOc1ccc2c(c1)CCc1nccn1-2`, for which the MIC in assay [1] was 50 µg/mL (≈ 176 µM); in [5], above 128 µg/mL; in assay [6], 2 µg/mL (≈ 7.03 µM); in [7], 16 µg/mL (≈ 56.3 µM); in assay [2], 0.5 µg/mL (≈ 1.76 µM); in [8], 16 µg/mL (≈ 56.3 µM). In addition, the MIC in assay [9] is 64 µg/mL (≈ 225 µM). Moreover, the Ratio in assay [3] and in assay [4] was 8 each time.

As to `c1ccc(COc2ccc3c(c2)CCc2nccn2-3)cc1`, the MIC in assay [1] was 200 µg/mL (≈ 724 µM); in assay [2] it was 50 µg/mL (≈ 181 µM).

Turning to `Fc1ccccc1COc1ccc2c(c1)CCc1nccn1-2`, the MIC in [1] turned out to be 150 µg/mL (≈ 510 µM); in assay [2], 50 µg/mL (≈ 170 µM).

In the case of `Brc1ccc(COc2ccc3c(c2)CCc2nccn2-3)cc1`, the MIC in assay [1] came out at 50 µg/mL (≈ 141 µM); in assay [2], 25 µg/mL (≈ 70.4 µM).

For the compound `Fc1ccc(COc2ccc3c(c2)CCc2nccn2-3)cc1`, the minimum inhibitory concentration (MIC) in assay [1] and in [2] was 50 µg/mL (≈ 170 µM) each time.

Turning to `CCCCCOc1ccc2c(c1)CCc1nccn1-2`, the values for the MIC in assay [1] and in assay [2] were 100 µg/mL (≈ 390 µM) and 50 µg/mL (≈ 195 µM), respectively.

As to `CCCCOc1ccc2c(c1)CCc1nccn1-2`, the results for the minimum inhibitory concentration (MIC) in assay [1] and in assay [2] were 150 µg/mL (≈ 619 µM) and 50 µg/mL (≈ 206 µM), respectively.

In the case of `Cc1ccc(COc2ccc3c(c2)CCc2nccn2-3)cc1`, the MIC in assay [1] was determined as 50 µg/mL (≈ 172 µM); in [2] it was 25 µg/mL (≈ 86.1 µM).

Regarding `O=C(O)c1cn(C2CC2)c2cc(N3CCNCC3)c(F)cc2c1=O` [CIPROFLOXACIN], the MIC in assay [5] was 4 µg/mL (≈ 12.1 µM); in [6], 128 µg/mL (≈ 386 µM); in assay [7], 128 µg/mL (≈ 386 µM); in assay [8], 4 µg/mL (≈ 12.1 µM); in [9], above 128 µg/mL.

Regarding `Clc1cccc(COc2ccc3c(c2)CCc2nccn2-3)c1`, the MIC in assay [1] was found to be 150 µg/mL (≈ 483 µM); in [2], 50 µg/mL (≈ 161 µM).

In the case of `Fc1cccc(COc2ccc3c(c2)CCc2nccn2-3)c1`, the MIC in assay [1] came to 150 µg/mL (≈ 510 µM); in assay [2], 50 µg/mL (≈ 170 µM).

For `CCCCCCCCCCOc1ccc2c(c1)CCc1nccn1-2`, the MIC in [1] was found to be 100 µg/mL (≈ 306 µM); in [2], 50 µg/mL (≈ 153 µM).

Regarding `Clc1ccccc1COc1ccc2c(c1)CCc1nccn1-2`, the minimal inhibitory concentration (MIC) in assay [1] came to 150 µg/mL (≈ 483 µM); in [2], 100 µg/mL (≈ 322 µM).

For the compound `CCCCCCCCCOc1ccc2c(c1)CCc1nccn1-2`, the MIC in [1] and in [2] was 50 µg/mL (≈ 160 µM) in each case.

In the case of `CC1(C)S[C@@H]2[C@H](NC(=O)[C@H](N)c3ccc(O)cc3)C(=O)N2[C@H]1C(=O)O` [AMOXICILLIN], the MIC in [1] was 25 µg/mL (≈ 68.4 µM); in assay [5] it was above 128 µg/mL; in assay [6], 16 µg/mL (≈ 43.8 µM); in [7] it was above 128 µg/mL; in [2], 150 µg/mL (≈ 410 µM); in [8] it was 16 µg/mL (≈ 43.8 µM). Further, the MIC in [9] is above 128 µg/mL.

Regarding `Brc1ccccc1COc1ccc2c(c1)CCc1nccn1-2`, the MIC in assay [1] was determined as 100 µg/mL (≈ 282 µM); in [2], 50 µg/mL (≈ 141 µM).

Consider `CCCOc1ccc2c(c1)CCc1nccn1-2`, for which the MIC came to 150 µg/mL (≈ 657 µM) in [1] and 50 µg/mL (≈ 219 µM) in [2].

Take `Clc1ccc(COc2ccc3c(c2)CCc2nccn2-3)cc1`: the MIC in [1] and in [2] was 50 µg/mL (≈ 161 µM) in each case.

In the case of `COc1ccc(COc2ccc3c(c2)CCc2nccn2-3)cc1`, the results for the MIC in [1] and in [2] were 100 µg/mL (≈ 326 µM) and 50 µg/mL (≈ 163 µM), respectively.

Take `CCCCCCOc1ccc2c(c1)CCc1nccn1-2`: the results for the minimum inhibitory concentration (MIC) in assay [1] and in assay [2] were 75 µg/mL (≈ 277 µM) and 16 µg/mL (≈ 59.2 µM), respectively.

In the case of `CCCCCCCCOc1ccc2c(c1)CCc1nccn1-2`, the MIC worked out at 50 µg/mL (≈ 168 µM) in [1] and 25 µg/mL (≈ 83.8 µM) in assay [2].
